The text below walks through data of patent publication US20260356851A1, “TRICYCLIC COMPOUNDS AND USES THEREOF” (HUTCHMED LIMITED, priority 2023, published 2026).

Type in all cases: cell-based
In assay [1] the target is T1, pERK1/2 (Thr202/Tyr204), NCI-1H441 (KRAS G12V) (Homo sapiens, UniProt P01116, G12V).
T1 construct: pERK1/2 HTRF read-out
Description: Assay of intracellular pERK1/2 (Thr202/Tyr204) phosphorylation in NCI-H441 cells (KRAS G12V). The note with it: pERK1/2, 2 days, read-out: NCI-H441 (KRAS G12V) IC50. In short, it runs like this: (§1)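 Cells (10000-12000/well) exposed to 3-fold compound dilutions for 2 days at 37 °C, then lysed; pERK1/2 (Thr202/Tyr204) measured by HTRF with d2 and cryptate antibodies, 665/615 nm ratio.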

Assay [2] addresses T2, pERK1/2 (Thr202/Tyr204), NCI-1H358 (KRAS G12C) (Homo sapiens, UniProt P01116, G12C).
T2 construct: pERK1/2 HTRF read-out
The experiment in a line: Assay of intracellular pERK1/2 (Thr202/Tyr204) phosphorylation in NCI-H358 cells (KRAS G12C). The conditions noted are these: pERK1/2, 2 days, read-out: NCI-H358 (KRAS G12C) IC50. In short, it runs like this: as §1

Assay [3] deals with T3, pERK1/2 (Thr202/Tyr204), PANC-1 (KRAS G121D) (Homo sapiens, UniProt P01116, G12D).
T3 construct: pERK1/2 HTRF read-out
Description: Assay of intracellular pERK1/2 (Thr202/Tyr204) phosphorylation in PANC-1 cells (KRAS G12D). The conditions noted are these: pERK1/2, 2 days, read-out: PANC-1 (KRAS G12D) IC50. The method, boiled down: as §1

Molecules are shown by their SMILES.

T1 sequence (P01116 1-188 isoform P01116-2 G12V): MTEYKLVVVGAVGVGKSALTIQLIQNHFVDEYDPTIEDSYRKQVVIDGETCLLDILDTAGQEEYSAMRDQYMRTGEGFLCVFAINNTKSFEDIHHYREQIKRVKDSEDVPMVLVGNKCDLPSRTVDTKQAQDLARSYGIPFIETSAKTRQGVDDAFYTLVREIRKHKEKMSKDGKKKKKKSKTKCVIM
T3 sequence (P01116 1-188 isoform P01116-2 G12D): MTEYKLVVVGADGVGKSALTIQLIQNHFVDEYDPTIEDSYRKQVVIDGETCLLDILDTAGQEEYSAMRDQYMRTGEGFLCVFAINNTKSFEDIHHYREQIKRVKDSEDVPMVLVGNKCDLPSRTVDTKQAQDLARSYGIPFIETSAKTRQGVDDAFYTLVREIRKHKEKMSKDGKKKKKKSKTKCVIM
T2 sequence (P01116 1-188 isoform P01116-2 G12C): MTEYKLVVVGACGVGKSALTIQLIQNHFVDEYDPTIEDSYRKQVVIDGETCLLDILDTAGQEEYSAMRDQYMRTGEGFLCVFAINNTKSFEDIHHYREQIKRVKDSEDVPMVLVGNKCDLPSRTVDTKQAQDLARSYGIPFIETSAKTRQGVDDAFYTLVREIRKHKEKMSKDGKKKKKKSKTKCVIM

Consider `C[C@@H](c1cccnc1N)N1c2nc(OC[C@@]34CCCN3C[C@H](F)C4)nc3c(F)c(-c4c5ccccc5cc5[nH]ncc45)nc(c23)O[C@@H]2CCC[C@@H]21` [Compound 400], for which the results for the IC50 in assay [1], in assay [2] and in assay [3] were > 1000 nM, 676 nM and 831 nM, respectively.
Consider `Cc1n[nH]c2cc3ccccc3c(-c3nc4c5c(nc(OC[C@@]67CCCN6C[C@H](F)C7)nc5c3F)N(C(C)c3cccnc3N)[C@@H](C)CO4)c12` (stereo partly drawn) [Compound 401], for which the IC50 (in general, the concentration at which inhibition is half-maximal) in assay [1] was 0.4 nM; in assay [2], 0.3 nM; in assay [3], 0.3 nM.
On to `Cc1n[nH]c2cc3ccccc3c(-c3cc4nc(OC[C@@]56CCCN5C[C@H](F)C6)nc5c4c(n3)OC[C@H](C)N5C(C)c3cccnc3N)c12` (stereo partly drawn) [Compound 402], for which the IC50 in assay [1] came to 0.6 nM; in assay [2] it was 0.4 nM; in assay [3], 0.4 nM.
On to `CC(c1cccnc1N)N1c2nc(OC[C@@]34CCCN3C[C@H](F)C4)nc3cc(-c4c5ccccc5cc5[nH]nc(C6CC6)c45)nc(c23)OC[C@@H]1C` (stereo partly drawn) [Compound 403], for which the IC50 in assay [1] was found to be 308 nM; in assay [2], 112 nM; in assay [3], 997 nM.
